Values joined by “and” are separate entries in the source; they are usually repeats but may differ in a detail not shown here. Equal values may be shown once.
Experiments:
[1] = target: E. coli. RNA polymerase holoenzyme supplemented with additional recombinant sigma 70 (Escherichia coli, UniProt P00579+P0A7Z4+P0A8T7+P0A8V2); assay: Prokaryotic (E. coli) RNA Polymerase Assay (Promoter Specific); assay type: biochemical; conditions: positive control at 20 ug/ml, column 12 rows A and B, plates #1 and #2
Excerpt: Prokaryotic (E. coli) RNA Polymerase Assay (Promoter Specific)
In this example, the targeted polymerase is the E. coli. RNA polymerase holoenzyme (α2 ββ'[…] ) supplemented with additional recombinant sigma 70 to increase the percentage of promoter specific transcription over non-specific elongation. GTP is omitted from the assay mixture. The substrate is a pBR-based plasmid with sigma 70, -10+-30 recognition sequences and a 260 nt G-free cassette
1. Make 1.45× assay buffer from 5× stock (1× final with extract and enzyme added). Add fresh components (polyethyleneglycol (PEG), dithiothreitol (DTT), and DNA) to final 1x solution; 50 mM Tris-Ac at pH 7.8, 100 μm ATP, 100 μM UTP, 1 μM CTP, 20 μg Bovine Serum Albumin/80 μl, PEG 3%, plasmid DNA template (described above), 0.3-0.5 μg/80 μl (from dose response), 2 mM DTT. Filter using 0.45 μm filter.
2. Make 1× storage buffer (50 mM Tris-Ac, 100 mM KAc, 100 mM MgCl2, 0.25 mg/ml BSA, 5 mM DTT). Add enzyme and [[…]]-CTP to a concentration such that there are about 80-100K cpm CTP in 15 μl, and enough enzyme (from dose response) to get 3000 cpm incorporated.
(§1) 3. Add 60 μl of assay buffer to filterplate.
(§2) 4. Add 8 μl of extract or compounds to filterplate.
5. Add 15 μl of ^33 P CTP+enzyme to filterplate. Shake 10 min.
(§3) 6. Incubate 45 min at 34° C.
7. Add 100 μl of DEAE Sephacell (Pharmacia) beads (20% slurry in 60% methanol, 20 mM EDTA, 0.02% NP-40). […]

[2] = test system: Eukaryotic (Yeast) RNA Polymerase II; assay: Eukaryotic (Yeast) RNA Polymerase II Assay (Promoter Nonspecific); assay type: biochemical, Candida; conditions: positive control at 20 ug/ml, column 12 rows A and B, plates #1 and #2
Protocol: Eukaryotic (Yeast) RNA Polymerase II Assay (Promoter Nonspecific)
1. Make 1.45× assay buffer from 5× stock (1× final with extract and enzyme added). Add fresh components (PEG, DTT, and MnCl2) to final 1× solution: 50 mM Tris-Acetate at pH 7.8, 50 mM KAc, 0.4 mM ATP, 0.2 mM GTP and UTP, 1 μM CTP, 20 μg BSA/80 μl, PEG 3%, single stranded DNA, 0.2 μg/80 μl, 2 mM DTT, and 2 mM MnCl2. Filtrate using 0.45 μm filter.
2. Make 1× storage buffer (50 mM Tris-Ac, 100 mM KAc, 0.25 mg/ml BSA, 5 mM DTT). Add enzyme and [α-^33 P]-CTP to a concentration such that there are about 80-100 CK cpm of hot CTP in 15 μl, and enough enzyme (from dose response) to get 3000 cpm incorporated.
as §1, §2
5. Add 15 μl hot CTP+enzyme to filterplate. Shake 10 min.
as §3
7. Add 100 μl of DEAE beads (20% slurry in 60% methanol, 20 mM EDTA, 0.02% NP-40). Incubate 1 hr.
8. Wash 5 times (300 μl each) with 0.5M dibasic NaPi, 0.5% NP-40, 10% ethanol.
9. Seal bottom, add 160 μl cocktail, seal top, and count.
Column 1, rows A-D of both plate #1 and #2 are background counts. Column 1, rows E-H of both plate #1 and #2 are counts obtained without the additon of label. Column 12, rows A and B of both plate #1 and #2 are positive controls using the eukaryotic RNA polymerase II inhibitor α-amanitinat 20 ug/ml. […]

Chain of E. coli. RNA polymerase holoenzyme supplemented with additional recombinant sigma 70 (P0A7Z4 whole entry): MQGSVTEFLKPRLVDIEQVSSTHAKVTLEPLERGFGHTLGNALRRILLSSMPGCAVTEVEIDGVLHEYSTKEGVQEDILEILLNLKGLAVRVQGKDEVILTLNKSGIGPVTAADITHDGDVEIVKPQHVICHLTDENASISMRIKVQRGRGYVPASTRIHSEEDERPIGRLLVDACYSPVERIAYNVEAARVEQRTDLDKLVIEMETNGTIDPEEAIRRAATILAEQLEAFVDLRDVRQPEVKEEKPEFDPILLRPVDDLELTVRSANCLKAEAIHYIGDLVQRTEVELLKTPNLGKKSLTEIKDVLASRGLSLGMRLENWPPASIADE
Chain of E. coli. RNA polymerase holoenzyme supplemented with additional recombinant sigma 70 (P0A8V2 whole entry): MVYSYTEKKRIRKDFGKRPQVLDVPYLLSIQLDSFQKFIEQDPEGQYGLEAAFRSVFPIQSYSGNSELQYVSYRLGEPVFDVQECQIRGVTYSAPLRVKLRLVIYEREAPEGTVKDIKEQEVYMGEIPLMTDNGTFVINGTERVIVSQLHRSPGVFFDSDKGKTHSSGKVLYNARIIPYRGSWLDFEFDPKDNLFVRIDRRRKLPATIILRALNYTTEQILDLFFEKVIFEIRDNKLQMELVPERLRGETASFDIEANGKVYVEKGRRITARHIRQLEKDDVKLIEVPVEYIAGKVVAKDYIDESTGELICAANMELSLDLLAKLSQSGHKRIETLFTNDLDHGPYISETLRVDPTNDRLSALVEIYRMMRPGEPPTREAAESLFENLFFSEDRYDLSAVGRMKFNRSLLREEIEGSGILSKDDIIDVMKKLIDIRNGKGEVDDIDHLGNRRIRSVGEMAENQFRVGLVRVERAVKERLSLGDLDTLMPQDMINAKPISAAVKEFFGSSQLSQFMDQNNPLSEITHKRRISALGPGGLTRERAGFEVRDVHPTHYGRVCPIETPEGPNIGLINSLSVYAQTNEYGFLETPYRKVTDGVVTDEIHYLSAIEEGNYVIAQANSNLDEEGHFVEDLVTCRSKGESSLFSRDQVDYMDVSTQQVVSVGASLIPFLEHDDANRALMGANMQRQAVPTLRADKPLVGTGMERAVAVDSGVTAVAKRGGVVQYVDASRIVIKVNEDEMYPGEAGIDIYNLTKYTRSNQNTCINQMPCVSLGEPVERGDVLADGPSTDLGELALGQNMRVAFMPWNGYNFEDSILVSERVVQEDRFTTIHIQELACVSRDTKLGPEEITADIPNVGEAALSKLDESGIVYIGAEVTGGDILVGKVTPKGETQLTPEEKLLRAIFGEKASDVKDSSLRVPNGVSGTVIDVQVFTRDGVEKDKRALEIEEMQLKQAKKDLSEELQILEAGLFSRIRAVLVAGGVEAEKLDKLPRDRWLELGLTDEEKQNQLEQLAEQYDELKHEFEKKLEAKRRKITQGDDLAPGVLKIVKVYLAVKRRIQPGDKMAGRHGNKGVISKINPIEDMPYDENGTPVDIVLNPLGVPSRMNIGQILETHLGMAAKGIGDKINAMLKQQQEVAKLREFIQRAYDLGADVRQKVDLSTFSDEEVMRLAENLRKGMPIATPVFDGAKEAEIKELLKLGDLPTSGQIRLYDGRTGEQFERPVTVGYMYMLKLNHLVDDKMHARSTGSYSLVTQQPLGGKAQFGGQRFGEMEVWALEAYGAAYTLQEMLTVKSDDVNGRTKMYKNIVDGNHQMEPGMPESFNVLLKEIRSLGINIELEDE
Chain of E. coli. RNA polymerase holoenzyme supplemented with additional recombinant sigma 70 (P0A8T7 whole entry): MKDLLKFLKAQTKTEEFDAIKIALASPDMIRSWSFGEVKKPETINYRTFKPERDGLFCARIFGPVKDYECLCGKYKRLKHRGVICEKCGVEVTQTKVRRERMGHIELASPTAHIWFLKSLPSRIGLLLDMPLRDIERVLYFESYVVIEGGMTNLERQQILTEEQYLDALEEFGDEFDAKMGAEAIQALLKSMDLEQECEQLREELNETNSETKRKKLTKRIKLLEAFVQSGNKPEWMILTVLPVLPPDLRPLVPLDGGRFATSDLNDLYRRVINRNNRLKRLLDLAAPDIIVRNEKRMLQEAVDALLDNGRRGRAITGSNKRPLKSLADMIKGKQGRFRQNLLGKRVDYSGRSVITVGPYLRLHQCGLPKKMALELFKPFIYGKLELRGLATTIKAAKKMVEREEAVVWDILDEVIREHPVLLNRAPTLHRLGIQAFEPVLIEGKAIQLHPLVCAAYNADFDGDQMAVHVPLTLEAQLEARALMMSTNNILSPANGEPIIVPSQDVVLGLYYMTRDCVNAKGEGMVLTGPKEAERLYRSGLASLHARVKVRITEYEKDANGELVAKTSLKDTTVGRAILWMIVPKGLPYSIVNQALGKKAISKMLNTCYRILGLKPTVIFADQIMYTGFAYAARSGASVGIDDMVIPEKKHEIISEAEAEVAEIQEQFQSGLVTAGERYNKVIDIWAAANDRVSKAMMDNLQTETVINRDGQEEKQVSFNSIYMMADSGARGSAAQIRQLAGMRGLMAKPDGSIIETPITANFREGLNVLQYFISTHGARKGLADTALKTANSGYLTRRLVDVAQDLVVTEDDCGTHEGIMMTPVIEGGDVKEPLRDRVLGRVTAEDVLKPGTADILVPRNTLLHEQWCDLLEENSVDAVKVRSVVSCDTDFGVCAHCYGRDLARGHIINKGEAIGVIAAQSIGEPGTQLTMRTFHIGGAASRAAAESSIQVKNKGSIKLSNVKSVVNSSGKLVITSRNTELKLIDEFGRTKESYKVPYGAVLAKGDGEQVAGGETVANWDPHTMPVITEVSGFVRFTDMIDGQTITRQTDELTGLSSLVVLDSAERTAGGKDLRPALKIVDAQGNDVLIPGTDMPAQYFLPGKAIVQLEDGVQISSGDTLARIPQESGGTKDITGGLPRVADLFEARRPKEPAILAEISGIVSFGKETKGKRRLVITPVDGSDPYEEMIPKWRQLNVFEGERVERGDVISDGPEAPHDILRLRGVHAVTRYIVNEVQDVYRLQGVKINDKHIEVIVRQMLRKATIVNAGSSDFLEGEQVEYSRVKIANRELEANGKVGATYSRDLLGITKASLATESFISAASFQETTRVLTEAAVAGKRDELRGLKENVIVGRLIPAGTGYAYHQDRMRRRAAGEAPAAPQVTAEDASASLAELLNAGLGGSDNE
Chain of E. coli. RNA polymerase holoenzyme supplemented with additional recombinant sigma 70 (P00579 whole entry): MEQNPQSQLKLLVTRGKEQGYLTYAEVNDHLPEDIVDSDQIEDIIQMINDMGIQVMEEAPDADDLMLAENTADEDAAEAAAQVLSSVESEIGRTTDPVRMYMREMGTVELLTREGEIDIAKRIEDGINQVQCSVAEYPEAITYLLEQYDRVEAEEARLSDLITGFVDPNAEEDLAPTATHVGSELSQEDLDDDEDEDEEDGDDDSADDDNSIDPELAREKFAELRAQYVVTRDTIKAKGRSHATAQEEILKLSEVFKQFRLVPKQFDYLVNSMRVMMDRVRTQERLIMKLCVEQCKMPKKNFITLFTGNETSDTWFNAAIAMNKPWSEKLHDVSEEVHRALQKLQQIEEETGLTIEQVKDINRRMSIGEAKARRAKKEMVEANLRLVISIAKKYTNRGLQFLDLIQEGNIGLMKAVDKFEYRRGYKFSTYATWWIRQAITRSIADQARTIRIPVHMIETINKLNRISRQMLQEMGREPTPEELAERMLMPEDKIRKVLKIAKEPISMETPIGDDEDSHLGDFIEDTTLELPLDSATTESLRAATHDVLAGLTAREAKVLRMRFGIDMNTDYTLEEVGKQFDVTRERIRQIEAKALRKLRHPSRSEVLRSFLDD

Compound	CPM A (label incorporated into transcript) [1]	CPM A (label incorporated into transcript) [2]
CO[C@H]1/C=C/O[C@@]2(C)Oc3c(C)c(O)c4c(O)c(c(/C=N/N5CCN(C)CC5)c(O)c4c3C2=O)NC(=O)/C(C)=C\C=C\[C@H](C)[C@H](O)[C@@H](C)[C@@H](O)[C@@H](C)[C@H](OC(C)=O)[C@@H]1C [rifampin]	717.00 CPM and 578.50 CPM and 452.50 CPM and 605.50 CPM	–
CCC(C)C1NC(=O)CNC(=O)C2Cc3c([nH]c4cc(O)ccc34)[S+]([O-])CC(NC(=O)CNC1=O)C(=O)NC(CC(N)=O)C(=O)N1CC(O)CC1C(=O)NC(C(C)C(O)CO)C(=O)N2 (stereo not drawn) [α-amanitin]	–	6477.00 CPM and 6882.00 CPM and 6999.00 CPM and 7028.50 CPM
